We go through 21 compounds from patent publication US8436011B2, “Pyridinopyridinone derivatives, preparation thereof and therapeutic use thereof” (Sanofi, priority 2008, dated 2013).

Structures can show the parent of a compound that is named as a salt.

As usually defined, the melting point is the temperature, or range, at which the solid turns liquid. Compound `CCN1CCCC1CNC(=O)Cc1ccc(-c2ccc3c(=O)c(C(=O)NC)c(N)n(CC)c3n2)c(C)c1` (stereo not drawn) [compound 61, 2-amino-1-ethyl-7-[4-(2-{[(1-ethylpyrrolidin-2-yl)methyl]amino}-2-oxoethyl)-2-methylphenyl]-N-methyl-4-oxo-1,4-dihydro-1,8-naphthyridine-3-carboxamide] displayed a melting point of 178 °C. In the case of `CCN1CCC[C@@H]1CNC(=O)Cc1ccc(-c2ccc3c(=O)c(C(=O)NC)c(N)n(CC)c3n2)c(F)c1` [compound 56, 2-amino-1-ethyl-7-{4-[2-({[(2R)-1-ethylpyrrolidin-2-yl]methyl}amino)-2-oxoethyl]-2-fluorophenyl}-N-methyl-4-oxo-1,4-dihydro-1,8-naphthyridine-3-carboxamide] it was 253 °C; in that of `CCN1CCCC1CNC(=O)Cc1csc(-c2ccc3c(=O)c(C(=O)NC)c(N)n(CC)c3n2)n1` (stereo not drawn) (as salt: HCl) [compound 43, 2-amino-1-ethyl-7-[4-(2-{[(1-ethylpyrrolidin-2-yl)methyl]amino}-2-oxoethyl)-1,3-thiazol-2-yl]-N-methyl-4-oxo-1,4-dihydro-1,8-naphthyridine-3-carboxamide], 228 °C.

Compound `CCn1c(N)c(C(=O)NC)c(=O)c2ccc(-c3ccc(CC(=O)NC[C@H]4CCCN4CCF)cn3)nc21` (as salt: HCl) [compound 29, 2-amino-1-ethyl-7-{5-[2-({[(2R)-1-(2-fluoroethyl)pyrrolidin-2-yl]methyl}-amino)-2-oxoethyl]pyrid-2-yl}-N-methyl-4-oxo-1,4-dihydro-1,8-naphthyridine-3-carboxamide] gave a melting point of 194 °C. In the case of `CCn1c(N)c(C(=O)NC)c(=O)c2ccc(-c3ccc(CCNc4ccccn4)cc3)nc21` (as salt: HCl) [compound 64, 2-amino-1-ethyl-N-methyl-4-oxo-7-{4-[2-(pyrid-2-ylamino)ethyl]phenyl}-1,4-dihydro-1,8-naphthyridine-3-carboxamide] it was 242 °C; in that of `CCn1c(N)c(C(=O)NC)c(=O)c2ccc(-c3ccc(CC(=O)NCCOC)cc3)nc21` [compound 9, 2-amino-1-ethyl-7-(4-{2-[(2-methoxyethyl)amino]-2-oxoethyl}phenyl)-N-methyl-4-oxo-1,4-dihydro-1,8-naphthyridine-3-carboxamide], 262 °C. Compound `CCn1c(N)c(C(=O)NC)c(=O)c2ccc(-c3ccc(CC(=O)NC[C@H]4CCCN4CC(F)F)cn3)nc21` (as salt: HCl) [compound 34, 2-amino-7-{5-[2-({[(2R)-1-(2,2-difluoroethyl)pyrrolidin-2-yl]methyl}amino)-2-oxoethyl]pyrid-2-yl}-1-ethyl-N-methyl-4-oxo-1,4-dihydro-1,8-naphthyridine-3-carboxamide] displayed a melting point of 260 °C.

As to `CCn1c(N)c(C(=O)NC)c(=O)c2ccc(-c3ccc(CC(=O)NCC4COCCN4C(C)C)cc3)nc21` (stereo not drawn) (as salt: HCl) [compound 32, 2-amino-1-ethyl-N-methyl-7-{4-[2-({[4-(1-methylethyl)morpholin-3-yl]-methyl}amino)-2-oxoethyl]phenyl}-4-oxo-1,4-dihydro-1,8-naphthyridine-3-carboxamide], the melting point came to 192 °C. In the case of `CCn1c(N)c(C(=O)NC)c(=O)c2ccc(-c3ccc(CC(=O)Nc4ccccn4)nc3)nc21` [compound 21, 2-amino-1-ethyl-N-methyl-4-oxo-7-{6-[2-oxo-2-(pyrid-2-ylamino)-ethyl]pyrid-3-yl}-1,4-dihydro-1,8-naphthyridine-3-carboxamide] it was 266 °C; in that of `CCN1CCCC1CNC(=O)Cc1ccc(-c2ccc3c(=O)c(C(=O)NC)c(N)n(CC)c3n2)cc1Cl` (stereo not drawn) (as salt: HCl) [compound 57, 2-amino-7-[3-chloro-4-(2-{[(1-ethylpyrrolidin-2-yl)methyl]amino}-2-oxoethyl)phenyl]-1-ethyl-N-methyl-4-oxo-1,4-dihydro-1,8-naphthyridine-3-carboxamide], 228 °C; in that of `CCn1c(N)c(C(=O)NC)c(=O)c2ccc(-c3ccc(CC(=O)Nc4ccccc4)cc3)nc21`, 299 °C. `CCn1c(N)c(C(=O)NC)c(=O)c2ccc(-c3ccc(CC(=O)NC(C)C)cc3)nc21` [compound 11, 2-amino-1-ethyl-N-methyl-7-(4-{2-[(1-methylethyl)amino]-2-oxoethyl}-phenyl)-4-oxo-1,4-dihydro-1,8-naphthyridine-3-carboxamide] showed a melting point of 315 °C. Regarding `CCN1CCCC1CNC(=O)Cc1ccc(-c2ccc3c(=O)c(C(=O)NC)c(N)n(CC)c3n2)cc1F` (stereo not drawn) [compound 58, 2-amino-7-[3-fluoro-4-(2-{[(1-ethylpyrrolidin-2-yl)methyl]amino}-2-oxoethyl)phenyl]-1-ethyl-N-methyl-4-oxo-1,4-dihydro-1,8-naphthyridine-3-carboxamide], the melting point came to 275 °C. `CCn1c(N)c(C(=O)NC)c(=O)c2ccc(-c3ccc(CC(=O)Nc4cnccn4)cc3)nc21` [compound 13, 2-amino-1-ethyl-N-methyl-4-oxo-7-{4-[2-oxo-2-(pyrazin-2-ylamino)ethyl]-phenyl}-1,4-dihydro-1,8-naphthyridine-3-carboxamide]: the melting point is 290 °C.

For `CCn1c(N)c(C(=O)NC)c(=O)c2ccc(-c3ccc(CC(=O)NCCc4cccnc4)cc3)nc21` (as salt: HCl) [compound 37, 2-amino-1-ethyl-N-methyl-4-oxo-7-(4-{2-oxo-2-[(2-pyrid-3-ylethyl)amino]-ethyl}phenyl)-1,4-dihydro-1,8-naphthyridine-3-carboxamide], the melting point came out at 222 °C. Regarding `CCN1CCCC1CNC(=O)CCc1ccc(-c2ccc3c(=O)c(C(=O)NC)c(N)n(CC)c3n2)cc1` (stereo not drawn) [compound 46, 2-amino-1-ethyl-7-[4-(3-{[(1-ethylpyrrolidin-2-yl)methyl]amino}-3-oxopropyl)phenyl]-N-methyl-4-oxo-1,4-dihydro-1,8-naphthyridine-3-carboxamide], the melting point was 218 °C. The same measure for `CCN1CC(F)(F)C[C@H]1CNC(=O)Cc1ccc(-c2ccc3c(=O)c(C(=O)NC)c(N)n(CC)c3n2)cc1` (as salt: HCl) [compound 24, 2-amino-1-ethyl-7-{4-[2-({[(2S)-1-ethyl-4,4-difluoropyrrolidin-2-yl]methyl}-amino)-2-oxoethyl]phenyl}-N-methyl-4-oxo-1,4-dihydro-1,8-naphthyridine-3-carboxamide]: 266 °C; for `CCn1c(N)c(C(=O)NC)c(=O)c2ccc(-c3ccc(CC(=O)NCc4ccncc4)cc3)nc21` (as salt: HCl) [compound 7, 2-amino-1-ethyl-N-methyl-4-oxo-7-(4-{2-oxo-2-[(pyrid-4-ylmethyl)amino]-ethyl}phenyl)-1,4-dihydro-1,8-naphthyridine-3-carboxamide]: 230 °C. The same measure for `CCn1c(N)c(C(=O)NC)c(=O)c2ccc(-c3ccc(CC(=O)NCCc4cccn4C)cc3)nc21` [compound 42, 2-amino-1-ethyl-N-methyl-7-[4-(2-{[2-(1-methyl-1H-pyrrol-2-yl)-ethyl]amino}-2-oxoethyl)phenyl]-4-oxo-1,4-dihydro-1,8-naphthyridine-3-carboxamide]: 252 °C; for `CCn1c(N)c(C(=O)NC)c(=O)c2ccc(-c3cccc(CC(=O)Nc4ccccn4)c3)nc21` (as salt: HCl) [compound 63, 2-amino-1-ethyl-N-methyl-4-oxo-7-{3-[2-oxo-2-(pyrid-2-ylamino)ethyl]-phenyl}-1,4-dihydro-1,8-naphthyridine-3-carboxamide]: 176 °C; for `CCN1C[C@H](F)C[C@H]1CNC(=O)Cc1ccc(-c2ccc3c(=O)c(C(=O)NC)c(N)n(CC)c3n2)cc1` (as salt: HCl) [compound 26, 2-amino-1-ethyl-7-{4-[2-({[(2S,4R)-1-ethyl-4-fluoropyrrolidin-2-yl]methyl}-amino)-2-oxoethyl]phenyl}-N-methyl-4-oxo-1,4-dihydro-1,8-naphthyridine-3-carboxamide]: 170 °C.
